# Counter-ions that a name gives are not always drawn.
row,melting point,SMILES
1,210 to 213 °C,"O=C(C=C(O)c1nc[nH]n1)c1c[nH]cc1Cc1ccc(F)cc1 [I-14, 1-[4-(4-Fluorobenzyl)pyrrol-3-yl]-3-hydroxy-3-(1H-1,2,4-triazol-3-yl)-propenone]"
2,185 to 192 °C,"O=C(O)C(O)=CC(=O)c1cc[nH]c1 [I-22, 2-Hydroxy-4-oxo-4-(pyrrol-3-yl)-2-butenoic acid]"
3,186 to 188 °C,"O=C(O)C(O)=CC(=O)c1ccn(S(=O)(=O)c2ccccc2)c1 [I-23, 4-(1-Benzenesulfonylpyrrol-3-yl)-2-hydroxy-4-oxo-2-butenoic acid]"
4,228 to 230 °C,"O=C(C=C(O)c1nn[nH]n1)c1c[nH]cc1CCc1ccccc1 [I-25, 3-Hydroxy-1-[(4-(2-phenylethyl))pyrrol-3-yl]-3-(2H-tetrazol-5-yl)-propenone]"
5,178 to 181 °C,"O=C(C=C(O)c1nn[nH]n1)c1cn(S(=O)(=O)c2ccccc2)cc1CCc1ccccc1 [I-31, 1-[[1-Benzenesulfonyl-4-(2-phenylethyl)]pyrrol-3-yl]-3-hydroxy-3-(2H-tetrazol-5-yl)-propenone]"
6,210 to 211 °C,"CCCn1cc(Cc2ccc(F)cc2)c(C(=O)C=C(O)c2nc[nH]n2)c1 [I-35, 1-[[4-(4-Fluorobenzyl)-1-n-propyl]pyrrol-3-yl]-3-hydroxy-3-(1H-1,2,4-triazol-3-yl)-propenone]"
7,221 to 223 °C,"O=C(C=C(O)c1nc[nH]n1)c1occc1Cc1ccc(F)cc1 [I-45, 1-[3-(4-Fluorobenzyl)furan-2yl]-3-hydroxy-3-(1H-1,2,4-triazol-3-yl)-propenone]"
8,171 to 174 °C,"O=C(C=C(O)c1nn[nH]n1)c1occc1Cc1ccc(F)cc1 [I-46, 1-[3-(4-Fluorobenzyl)furan-2-yl]-3-hydroxy-3-(2H-tetrazol-5-yl)-propenone]"
9,170 to 177 °C,"O=C(C=C(O)c1nc[nH]n1)c1ccoc1Cc1ccc(F)cc1 [I-49, 1-[2-(4-Fluorobenzyl)furan-3-yl]-3-hydroxy-3-(1H-1,2,4-triazol-3-yl)-propenone]"
10,150 to 153 °C,"O=C(C=C(O)c1nn[nH]n1)c1ccoc1Cc1ccc(F)cc1 [I-52, 1-[2-(4-Fluorobenzyl)furan-3-yl]-3-hydroxy-3-(2H-tetrazol-5-yl)-propenone]"
11,121 to 123 °C,"O=C(C=C(O)c1nn[nH]n1)c1ccc(Cc2ccc(F)cc2)o1 [I-55, 1-[5-(4-Fluorobenzyl)furan-2-yl]-3-hydroxy-3-(2H-tetrazol-5-yl)-propenone]"
12,84 to 85 °C,"O=C(C=C(O)c1ccccn1)c1ccc(Cc2ccc(F)cc2)o1 [I-106, 1-[5-(4-Fluorobenzyl)furan-2-yl]-3-hydroxy-3-(pyridin-2-yl)-propenone]"
13,113 to 115 °C,"NC(=O)C(O)=CC(=O)c1ccc(Cc2ccc(F)cc2)o1 [I-134, 4-[5-(4-Fluorobenzyl)furan-2-yl]-2-hydroxy-4-oxo-2-butenoic acid amide]"
14,> 250 °C,"O=C(Nc1ccccn1)C(O)=CC(=O)c1ccc(Cc2ccc(F)cc2)o1 [I-135, 4-[5-(4-Fluorobenzyl)furan-2-yl]-2-hydroxy-4-oxo-2-butenoic acid pyridin-2-yl amide]"
15,198 °C (dec.),"O=C(Nc1nccs1)C(O)=CC(=O)c1ccc(Cc2ccc(F)cc2)o1 [I-136, 4-[5-(4-Fluorobenzyl)furan-2-yl]-2-hydroxy-4-oxo-2-butenoic acid thiazol-2-yl amide]"
16,132 to 134 °C,"O=C(Nc1ccccc1)C(O)=CC(=O)c1ccc(Cc2ccc(F)cc2)o1 [I-137, 4-[5-(4-Fluorobenzyl)furan-2-yl]-2-hydroxy-4-oxo-2-butenoic acid phenyl amide]"

row,SMILES,melting point
1,"O=C(C=C(O)c1ncc[nH]1)c1ccc(Cc2ccc(F)cc2)o1 (as salt: hydrochloride) [I-101, 1-[5-(4-Fluorobenzyl)furan-2-yl]-3-hydroxy-3-(1H-imidazol-2-yl)-propenone hydrochloride]",186 to 191 °C

# From patent US6620841B1, “Aromatic heterocycle compounds having HIV integrase inhibiting activities” (Shionogi & Co., Ltd., priority 1998, dated 2003)
